According to US9119780B2, “Triggerable compositions for two-stage, controlled release of proactive chemistry” (Kimberly-Clark Worldwide, Inc., priority 2013, dated 2015):

Details: exposure to liquid water under ambient conditions
From the text: The relative hydrophobicity and hydrophilicity of the R groups can be easily adjusted to tailor the hydrolysis rate upon exposure to aqueous medium, and therefore the release rate of the active R*OH.

| Compound | hydrolysis rate |
| --- | --- |
| CC1CCC(C(C)C)C(OC(=O)c2ccc[n+](C)c2)C1.[Cl-] (centres unmarked) | hydrolyzed rapidly |
| Cc1ccc(C(C)C)c(OC(=O)c2ccc[n+](C)c2)c1.[Cl-] | hydrolyzed rapidly |
